Test results as given in the NIST ThermoML archive (doi:10.1016/j.tca.2016.04.013).

Experiments:
[1] = molar heat capacity at constant pressure; settings: 101.33 kPa, Crystal, relaxation calorimetry
[2] = 101.33 kPa, Crystal, relaxation calorimetry

Oc1ncc(Cl)c(O)n1 [5-chloro-2,4-pyrimidinedione]
Settings | molar entropy, [2] [J/K/mol] | molar heat capacity at constant pressure, [1] [J/K/mol]
0.5 K | 0.000378 | 0.000485
1 K | 0.00108 | 0.00194
2 K | 0.00473 | 0.0116
2.04 K | – | 0.0119
2.26 K | – | 0.0165
2.51 K | – | 0.0224
2.79 K | – | 0.0297
3 K | 0.0135 | 0.0367
3.1 K | – | 0.0407
3.44 K | – | 0.0549
3.82 K | – | 0.0739
4 K | 0.0301 | 0.085
4.24 K | – | 0.101
4.71 K | – | 0.138
5 K | 0.0569 | 0.164
5.24 K | – | 0.188
5.81 K | – | 0.257
6 K | 0.0966 | 0.282
6.44 K | – | 0.35
7 K | 0.152 | 0.446
7.17 K | – | 0.479
7.91 K | – | 0.649
8 K | 0.225 | 0.665
8.78 K | – | 0.878
9 K | 0.319 | 0.945
9.74 K | – | 1.19
10 K | 0.435 | 1.28
10.81 K | – | 1.59
11.99 K | – | 2.14
13.31 K | – | 2.79
14.74 K | – | 3.64
15 K | 1.39 | 3.81
16.35 K | – | 4.68
18.13 K | – | 6.06
20 K | 2.96 | 7.44
20.12 K | – | 7.49
22.32 K | – | 9.36
24.77 K | – | 11.49
25 K | 5.07 | 11.69
27.49 K | – | 13.93
30 K | 7.59 | 16.14
30.5 K | – | 16.6
33.86 K | – | 19.52
35 K | 10.42 | 20.57
37.57 K | – | 22.81
40 K | 13.44 | 24.87
41.69 K | – | 26.3
45 K | 16.61 | 28.97
46.26 K | – | 29.88
50 K | 19.87 | 32.81
51.34 K | – | 34.08
56.96 K | – | 37.64
60 K | 26.48 | 39.81
63.23 K | – | 41.77
70 K | 33.09 | 45.98
70.19 K | – | 45.99
77.89 K | – | 50.5
80 K | 39.6 | 51.52
86.44 K | – | 54.98
90 K | 45.96 | 56.6
95.96 K | – | 59.39
100 K | 52.17 | 61.33
106.02 K | – | 64.02
110 K | 58.23 | 65.83
116.12 K | – | 68.52
120 K | 64.15 | 70.16
126.18 K | – | 72.83
130 K | 69.93 | 74.35
136.3 K | – | 76.98
140 K | 75.59 | 78.45
146.41 K | – | 80.91
150 K | 81.14 | 82.47
156.52 K | – | 84.91
160 K | 86.59 | 86.42
166.6 K | – | 89.11
170 K | 91.94 | 90.33
176.69 K | – | 92.91
180 K | 97.22 | 94.19
186.77 K | – | 96.98
190 K | 102.41 | 98.02
196.85 K | – | 100.43
200 K | 107.53 | 101.81
206.94 K | – | 104.46
210 K | 112.59 | 105.58
217.03 K | – | 107.97
220 K | 117.59 | 109.32
227.26 K | – | 112.17
230 K | 122.53 | 113.04
234.67 K | – | 114.85
240 K | 127.42 | 116.74
244.74 K | – | 118.78
250 K | 132.26 | 120.42
254.84 K | – | 122.35
260 K | 137.06 | 124.08
264.91 K | – | 125.73
270 K | 141.81 | 127.73
273.15 K | 143.3 | 128.88
275 K | – | 129.5
280 K | 146.52 | 131.37
285.08 K | – | 132.72
290 K | 151.19 | 135
295.37 K | – | 136.73
298.15 K | 154.97 | 137.95
300 K | 155.83 | 138.62
302.71 K | – | 140.1

O=c1cc(Cl)[nH]c(=O)[nH]1 [6-chlorouracil]
Settings | molar entropy, [2] [J/K/mol] | molar heat capacity at constant pressure, [1] [J/K/mol]
0.5 K | 0.00109 | 0.00126
1 K | 0.00269 | 0.00405
1.93 K | – | 0.0182
2 K | 0.00944 | 0.0203
2.15 K | – | 0.0242
2.38 K | – | 0.0322
2.65 K | – | 0.043
2.95 K | – | 0.0584
3 K | 0.0242 | 0.0602
3.27 K | – | 0.0782
3.63 K | – | 0.103
4 K | 0.0508 | 0.135
4.04 K | – | 0.139
4.48 K | – | 0.186
4.98 K | – | 0.247
5 K | 0.0926 | 0.252
5.52 K | – | 0.332
6 K | 0.152 | 0.415
6.12 K | – | 0.436
6.79 K | – | 0.58
7 K | 0.232 | 0.631
7.53 K | – | 0.771
8 K | 0.333 | 0.908
8.35 K | – | 1.02
9 K | 0.459 | 1.25
9.26 K | – | 1.35
10 K | 0.612 | 1.66
10.25 K | – | 1.77
11.34 K | – | 2.31
12.58 K | – | 3.02
13.97 K | – | 3.91
15 K | 1.8 | 4.63
15.49 K | – | 4.99
17.19 K | – | 6.32
19.09 K | – | 7.91
20 K | 3.67 | 8.68
21.19 K | – | 9.7
23.51 K | – | 11.78
25 K | 6.08 | 13.17
26.09 K | – | 14.1
28.91 K | – | 16.74
30 K | 8.88 | 17.67
32.12 K | – | 19.59
35 K | 11.94 | 22.04
35.65 K | – | 22.58
39.54 K | – | 25.93
40 K | 15.15 | 26.22
43.88 K | – | 29.29
45 K | 18.47 | 30.18
48.68 K | – | 32.81
50 K | 21.85 | 33.87
54.02 K | – | 36.6
59.94 K | – | 40.61
60 K | 28.63 | 40.68
66.52 K | – | 44.81
70 K | 35.37 | 46.77
73.83 K | – | 48.95
80 K | 41.97 | 52.2
81.96 K | – | 53.22
90 K | 48.41 | 57.15
90.91 K | – | 57.53
100 K | 54.67 | 61.75
100.89 K | – | 61.78
110 K | 60.76 | 66.1
111.04 K | – | 66.68
120 K | 66.7 | 70.26
121.13 K | – | 70.82
130 K | 72.48 | 74.29
131.15 K | – | 74.92
140 K | 78.13 | 78.22
141.29 K | – | 78.76
150 K | 83.66 | 82.08
151.38 K | – | 82.6
160 K | 89.08 | 85.89
161.47 K | – | 86.43
170 K | 94.4 | 89.66
171.56 K | – | 90.19
180 K | 99.63 | 93.41
181.61 K | – | 94.08
190 K | 104.78 | 97.14
191.69 K | – | 97.83
200 K | 109.85 | 100.85
201.81 K | – | 101.23
210 K | 114.86 | 104.56
211.89 K | – | 105.16
220 K | 119.81 | 108.26
222 K | – | 108.99
230 K | 124.71 | 111.96
232.08 K | – | 112.88
240 K | 129.55 | 115.64
242.1 K | – | 116.48
250 K | 134.35 | 119.33
252.19 K | – | 120.07
260 K | 139.1 | 123
262.33 K | – | 123.73
270 K | 143.81 | 126.67
272.41 K | – | 127.71
273.15 K | 145.28 | 127.82
280 K | 148.48 | 130.33
282.41 K | – | 131.41
290 K | 153.12 | 133.98
292.56 K | – | 134.98
298.15 K | 156.87 | 136.94
300 K | 157.72 | 137.62
302.57 K | – | 138.3
